Laboratory results reported in patent US8501911B2, “Methods of reducing inflammation and mucus hypersecretion” (Biomarck Pharmaceuticals, Ltd, priority 1999, dated 2013).
Residues, ends and D or L forms follow the SMILES beside them. *: point of attachment. Myristoyl = CCCCCCCCCCCCCC(=O)*

What was measured:
NHBE cells = assay: Mucin secretion from NHBE cells exposed to kinase activators/reagents alone (ELISA); assay type: cell-based, human; details: 15 min
Method: To determine the potential role of PKC and/or PKG in the mucin secretory process, NHBE cells were exposed to the following two specific protein kinase activators: the phorbol ester, phorbol 12-myristate 13-acetate (PMA), for activation of PKC, and the nonhydrolyzable cGMP analogue, 8-Br-cGMP, for activation of PKG.
NHBE Cell Culture—Expansion, cryopreservation, and culture of NHBE cells in the air/liquid interface were performed as described previously. See, Krunkosky et al. Briefly, NHBE cells (Clonetics, San Diego, Calif.) were seeded in vented T75 tissue culture flasks (500 cells/cm^2) and cultured until cells reached 75-80% confluence. Cells were then dissociated by trypsin/EDTA and frozen as passage-2. Air/liquid interface culture was initiated by seeding passage-2 cells (2×10^4 cells/cm^2) in […]® clear culture inserts (Costar, Cambridge, Mass.) that were thinly coated with rat tail collagen, type 1 (Collaborative Biomedical, Bedford, Mass.). Cells were cultured submerged in medium in a humidified 95% air, 5% CO2 environment for 5-7 days until nearly confluent. At that time, the air/liquid interface was created by removing the apical medium and feeding cells basalaterally. Medium was renewed daily thereafter. Cells were cultured for an additional 14 days to allow for full differentiation.
Measurement of Mucin Secretion by ELISA—Before collection of “base line” and “test” mucin samples, the accumulated mucus at the apical surface of the cells was removed by washing with phosphate-buffered saline, pH 7.2. To collect the base-line secretion, cells were incubated with medium alone, and secreted mucin in the apical medium was collected and reserved. Cells were rested for 24 h and then exposed to medium containing the selected stimulatory and/or inhibitory reagents (or appropriate controls), after which secreted mucin was collected and reserved as the test sample. Incubation times for the base line and the test were the same but varied depending on the test reagent utilized. Both base line and test secretions were analyzed by ELISA using an antibody capture method as known in the art. See, e.g., Harlow et al., Antibodies: A Laboratory Manual, pp. 570-573, Cold Spring Harbor Laboratory, Cold Spring Harbor, N.Y. (1988). The primary antibody for this assay was 17Q2 (Babco, Richmond, Calif.), a monoclonal antibody that reacts specifically with a carbohydrate epitope on human airway mucins. […] Wright et al., Am. J. Physiol. 271, L854-L861 (1996). Levels of mucin secretion were reported as percentage of the medium control.
Mucus secreted from the airway epithelial cells in vitro after stimulation by activators was assessed using an ELISA (antibody capture method) (E. Harlow, D. Lane. “Antibodies: A Laboratory Manual.” New York: Cold Spring Harbor Laboratory Press, 1988), wherein the collected mucus is bound directly to the ELISA plate. Mucus was detected using an antibody raised against monkey airway mucus (Lin et al. Am J Respir Cell Mol Biol 1:41, 1989).

HL-60 clone 15 cells = assay: Inhibition of eosinophil peroxidase (EPO) release from HL-60 clone 15 cells; assay type: cell-based, human; details: at 50 μM of test peptide; 100 nM PMA 2 hours
Excerpt: The human promyelocytic cell line (Fischkoff S A, Graded increase in probability of eosinophilic differentiation of HL-60 promyelocytic leukemia cells induced by culture under alkaline conditions. Leuk. Res., 12:679-686, 1988; Rosenberg H F, Ackerman S J, Tenen D G. Human eosinophil cationic protein: molecular cloning of a cytotoxin and helminthotoxin with ribonuclease activity. J. Exp. Med., 170:163-176, 1989), HL-60 clone 15, is eosinophil-like promyelocytic human cell line which was purchased from American Type Culture Collection (ATCC) Rockville, Md. (catalog #CRL-1964). The cells were maintained in medium consisting of RPMI 1640 with glutamine supplemented with 10% heat inactivated fetal bovine serum (Gibco, Carlsbad, Calif.), 50 IU/mL penicillin, 50 μg/mL streptomycin, and 25 mM HEPES buffer, pH 7.8 at 37° C. in an atmosphere containing 5% CO2. Final differentiation of an eosinophil-like phenotype was initiated by culturing the cells at 5×10^5 cells/mL in the above medium containing 0.5 mM butyric acid (Sigma-Aldrich) for 5 days as previously described by Tiffany H L, Li F, and Rosenberg H F, Hyperglycosylation of eosinophil ribonuclease in a promyelocytic leukemia cell line and in differentiated peripheral blood progenitor cells J. Leukoc. Biol. 58: 49-54, 1995; and by Tiffany H L, Alkhatib G, Combadiere C, Berger E A, and Murphy P M., CC Chemokine receptors are differentially regulated by IL-5 during maturation of eosinophilic HL-60 cells. J. Immunol. 160:1385-1392, 1998. The cells were washed and resuspended at 2.5×10^6 per mL in phenol free RPMI-1640 (Cellgro; Mediatech Inc.). Aliquots of cells in 15 mL plastic tubes were preincubated with indicated concentration of test peptide (dissolved in PBS, pH 7.0) for 10 minutes followed by treatment of the cells with 100 nM PMA for 2 hours. The reaction was terminated by placing the tubes on ice and centrifugation of cells at 400 g for 5 min at 4° C. The eosinophil peroxidase (EPO) activity released by HL-60 clone 15 cells was assayed using TMB according to a previously established technique Paige et al (see above) and by Lacy P, Mahmudi-Azer S, Bablitz B, Hagen S C, Velazquez J R, Man S F, Moqbel R. Rapid mobilization of intracellularly stored RANTES in response to interferon-gamma in human eosinophils. Blood 94:23-32, 1999. Briefly, add 50 μL aliquots of the supernatant to 96-well microtiter plate followed by addition of 100 μL of the tetramethylbenzidine (TMB) substrate solution and incubate at room temperature for 15 minutes. The reaction was terminated by addition of 50 μL of 1.0 M sulfuric acid and absorbance was read at 450 nm in a spectrophotometric microplate reader (Molecular Devices, Sunnyvale, Calif.). The amount of secreted EPO was expressed as percentage of total content using the amount obtained in the same number of triton X-100-lysed cells.
Because standard EPO from HL-60 clone 15 cells was not available to use for quantification, we measured both released and intracellular (from lysed cells) levels of EPO, and expressed the released EPO as a percentage of total (intracellular and released) for each. To measure intracellular EPO in HL-60 clone 15 cells, appropriate aliquots of 0.1% triton X-100-lysed cells were taken for quantification of intracellular EPO as described above. All data are expressed as percentage of control to minimize variability between cultures.

U937 cells = assay: Inhibition of lysozyme release from U937 cells; assay type: cell-based, human; details: at 50 μM of test peptide; 100 nM PMA
Method: U937 is a monocyte-like human cell line which was purchased from American Type Culture Collection (ATCC) Rockville, Md. (catalog #CRL-15932). The cells were maintained in medium consisting of RPMI 1640 with glutamine supplemented with 10% heat inactivated fetal bovine serum (Gibco, Carlsbad, Calif.), 50 IU/mL, penicillin, 50 μg/mL streptomycin at 37° C. in an atmosphere containing 5% CO2. U937 cells were washed and resuspended at 2.5×10^6 cells/mL in phenol red free RPMI-1640 medium (Cellgro, Mediatech Inc.). Aliquots of cells in 15 mL plastic tubes were preincubated with indicated concentrations of test peptides (dissolved in PBS, pH 7.0) for 10 min at 37° C. The cells were then stimulated with 100 nM PMA for 1 hour. The cells were then centrifuged at 400×g for 5 min at 4° C. Lysozyme released from U937 cells was measured using spectrophotometric assay as described previously by Ralph et al., 1976. (Ralph P, Moore M A S, and Nilsson K. Lysozyme synthesis by established human and murine histocytic lymphoma cell lines. J. Exp. Med. 143:1528-33, 1976). Briefly. 100 μL of supernatants were placed in a 96-well microtiter plate and mixed with 100 μL of a Micrococcus lysodeikticus (Sigma-Aldrich) suspension (0.3 mg/mL in 0.1 M sodium phosphate buffer, pH 7.0), incubated for […] at room temperature and decrease in absorbance at 450 nm was measured. Chicken egg white lysozyme (EMD Biosciences) was used as a standard.

[1] = Solubility in 0.5 N saline; assay type: physicochemical; details: in 0.5 N Saline at pH 6.5
human neutrophils = assay: Human neutrophil chemotactic migration assay; assay type: cell-based; details: test peptide 50 μM; for Neutrophil Migration (% Inhibition), LTB4: LTB4 100 nM; for Neutrophil Migration (% Inhibition), LTB4 / Neutrophil Migration (% Inhibition), fMLP: 0 = inactive; for Neutrophil Migration (% Inhibition), PAF: PAF 100 nM; for Neutrophil Migration (% Inhibition), fMLP: fMLP 100 nM
Method: Human neutrophils were isolated from heparinized whole blood collected from healthy adult donors via cephalic venipuncture by a slightly modified method as described by Akasaki et al., 1999 (Akasaki T, Koga H, and Sumimoto H., Phosphoinositide 3-kinase-dependent and -independent activation of the small GTPase Rac2 in human neutrophils, J. Biol. Chem. 274:18055-18059, 1999). The blood was mixed with dextran (final concentration 1.4% dextran) and then allowed to settle for 60 minutes, after which time the leukocyte rich plasma was collected and layered onto 5 mL of Ficoll-Paque PLUS in 15 ml, conical tubes. The plasma was centrifuged at 1800 rpm for 20 minutes at room temperature. The residual erythrocytes were lysed utilizing a hypotonic saline and the remaining neutrophils were re-suspended in Hank's balanced salt solution containing 20 mM HEPES and 8.9 mM sodium bicarbonate without calcium or magnesium (HBSS), yielding neutrophils that were greater than 98% pure and greater than 99% viable.
Neutrophil migration assay was performed according to the method described by Frevert C W, Wong V A, Goodman R B, Goodwin R, and Martin T R., Rapid fluorescence-based measurement of neutrophil migration in vitro, J. Immunol. Methods, 213:41-52, 1998. Human neutrophils were labeled with the fluorescent dye calcein for 30 minutes at room temperature. Cells were then washed and resuspended in a migration buffer containing HBSS with 2% FCS. Cells were treated with buffer alone or with the indicated test peptide (50 μM) for 30 minutes at 37° C. Treated cells (1×10^4 cells) were then placed on the upper side of a ChemoTx® chemotaxis plate (Neuroprobe, Gaithersburg, Md.) membrane (2 μm pore size). Lower wells of the plate were filled with migration buffer alone or with buffer containing fMLP (100 nM), LTB4 (100 nM), or PAF (100 nM). Wells containing 1×10^4 labeled cells were used as standards to calculate migration percentage. Cells were allowed to migrate for 1 hour at 37° C. After incubation, cells on the top of the filter were washed away with PBS. Followed by this, 0.5 mM EDTA was added to the top of the filter for 5 min to detach adherent cells and the membrane was again washed. The plate was then centrifuged at 1000 rpm for 1 min. The filter was removed and the fluorescence was measured in the lower wells (485 nm excitation, 530 nm emission wavelength) using an fMax fluorescence plate reader (Molecular Devices, Sunnyvale, Calif.). Percent migration was determined by dividing the fluorescence of each well by the fluorescence of the standard wells containing 1×10^4 labeled cells. A lesser number of migrated neutrophils in the bottom compartment is indicative of the test peptide being an inhibitor of inflammation.

[2] = tested on: MARCKS-related mucus secretion; assay: Inhibition of MARCKS-related mucus (mucin) secretion, Table 1; assay type: cell-based; details: at 100 μM of test peptide

Compound | Mucin secretion as percent of control (NHBE cells; reagent 100 nM alone) | Mucin secretion as percent of control (NHBE cells; reagent 1 μM alone) | Mucin secretion as percent of control (NHBE cells; reagent 1 μM together with PMA 100 nM) | % Inhibition EPO (HL-60 clone 15 cells) | % Inhibition Lysozyme (U937 cells) | solubility [1] | Neutrophil Migration (% Inhibition), LTB4 (human neutrophils) | Neutrophil Migration (% Inhibition), PAF (human neutrophils) | Neutrophil Migration (% Inhibition), fMLP (human neutrophils) | % Inhibition Mucin [2]
CCCCCCCCCCCCCC(=O)O[C@@H]1[C@@H](C)[C@@]2(O)[C@@H](C=C(CO)C[C@@]3(O)C(=O)C(C)=C[C@@H]23)[C@@H]2C(C)(C)[C@]12OC(C)=O [4-alpha-PMA] | 104% |  |  |  |  |  |  |  |  | 
Nc1nc2c(nc(Br)n2[C@@H]2O[C@@H]3COP(O)(=S)O[C@H]3[C@H]2O)c(=O)[nH]1 (some centres unmarked) [Rp-8-Br-cGMP] |  | 100% | 123% |  |  |  |  |  |  | 
CCCCCCCCCCCCCC(=O)NCC(=O)N[C@@H](C)C(=O)N[C@@H](CCC(N)=O)C(=O)N[C@@H](Cc1ccccc1)C(=O)N[C@@H](CO)C(=O)N[C@@H](CCCCN)C(=O)N[C@H](C(=O)N[C@@H](C)C(=O)N[C@@H](C)C(=O)N[C@@H](CCCCN)C(=O)NCC(=O)N[C@@H](CCC(=O)O)C(=O)N[C@@H](C)C(=O)N[C@@H](C)C(=O)N[C@@H](C)C(=O)N[C@@H](CCC(=O)O)C(=O)N[C@@H](CCCNC(=N)N)C(=O)N1CCC[C@H]1C(=O)NCC(=O)N[C@@H](CCC(=O)O)C(=O)O)[C@@H](C)O [SEQ ID NO: 5] (Myristoyl-GAQFSKTAAKGEAAAERPGE-OH; C-terminus assumed) |  |  |  | 33.6% | 99% | < 5000 µg/mL | 76.8% | 88.4% | 69.1% | 77%
CCCCCCCCCCCCCC(=O)NCC(=O)N[C@@H](C)C(=O)N[C@@H](CCC(N)=O)C(=O)N[C@@H](Cc1ccccc1)C(=O)N[C@@H](CO)C(=O)N[C@@H](CCCCN)C(=O)N[C@H](C(=O)N[C@@H](C)C(=O)N[C@@H](C)C(=O)N[C@@H](CCCCN)C(=O)NCC(=O)N[C@@H](CCC(=O)O)C(=O)N[C@@H](C)C(=O)N[C@@H](C)C(=O)N[C@@H](C)C(=O)N[C@@H](CCC(=O)O)C(=O)O)[C@@H](C)O [SEQ ID NO: 9, N-myristoyl-GAQFSKTAAKGEAAAE] (Myristoyl-GAQFSKTAAKGEAAAE-OH; C-terminus assumed) |  |  |  | 30.3% | 99% | > 2000 µg/mL | 90.3% | 72.7% | 84.8% | 68%
